Laboratory results taken from patent US20130225615A1, “2-CYCLOQUINAZOLINE DERIVATIVES AND METHODS OF USE THEREOF” (AMBIT BIOSCIENCES CORPORATION, priority 2010, published 2013).

Key:
[1] = system: GM-CSFR/JAK2/STAT5 pathway in CSTF-1 cells; test: CSTF-1 cell-based reporter assay (beta-lactamase, GM-CSF stimulated); conditions: Homo sapiens; GM-CSF at 2 ng/mL, 4 hours; read-out: Cell Assay: CS TF-1 reporter assay IC50
Procedure: CSTF-1 Cell-Based Reporter Assay
CSTF-1 cells are derived from the human erythroleukemia cell line that is growth dependent on GM-CSF and has an intact GM-CSFR/JAK2/STAT5 pathway. The cell line contains stably integrated beta-lactamase reporter gene under the control of the […] (irf 1) response element recognized by the activated transcription factor STATS. csTF-1 cells (Invitrogen K1219) were washed with assay media (97% OPTIMEM/0.5% dialyzed FBS/0.1 mM NEAA/1 mM Na pyr/P/S) and seeded in the same media at 5×10^5 cell/mL in T150 flask. After 16 hour incubation, cells were seeded at 2×10^5 cell/well in 50 μl volume, into Costar, clear bottom, 96-well assay plates. Serial dilutions of compounds were added to the plates with final DMSO concentration at 0.5% and GM-CSF at 2 ng/mL and the plates were then incubated at […] and 5% CO2 for 4 hours. The plates were brought to room temperature before adding Substrate Mixture according to manufacturer's protocol (Invitrogen, Catalog #K1085). The assay plates containing the substrate mixture were incubated in the dark at room temperature for 2 hours. Blue and green fluorescence was measured with excitation at 409 nm and emission at 460 nm (for blue) and excitation at 409 nm and emission at 530 nm (for green) using Spectra Max Gemini EM.

JAK2 = target: T1, JAK2 (Homo sapiens, UniProt O60674); test: Competition binding assay, JAK2
T1 construct: made in house
Description: (§1) Determination of Binding Constants (Kd) of the Compounds Against JAK Kinases
(§2) Competition binding assays used herein were developed, validated and performed as described in Fabian et al., Nature Biotechnology 2005, 23,329-336. Kinases were produced as fusions to T7 phage (See, Fabian et al. or WO04/015142) or alternatively, the kinases were expressed in HEK-293 cells and subsequently tagged with DNA for PCR detection (See, WO08/005,310). For the binding assays, streptavidin-coated magnetic beads were treated with biotinylated affinity ligands for 30 min at rt to generate affinity resins. The liganded beads were blocked with excess biotin and washed with blocking buffer (SeaBlock (Pierce), 1% BSA, 0.05% Tween 20, 1 mM DTT) to remove unbound ligand and to reduce non-specific binding. Binding reactions were assembled by combining kinase, liganded affinity beads, and test compounds in 1× binding buffer (20% SeaBlock, 0.17×PBS, 0.05% Tween 20, 6 mM DTT). Test compounds were prepared as 100× stocks in DMSO and rapidly diluted into the aqueous environment. DMSO was added to control assays lacking a test compound. Primary screen interactions were performed in polypropylene 384-well plates in a final volume of 34 μL, while Kd determinations were performed in polystyrene 96-well plates in a final volume of 135 μL. The assay plates were incubated at room temperature with shaking for 1 hour, long enough for binding reactions to reach equilibrium, and the affinity beads were washed extensively with wash buffer (1×PBS, 0.05% Tween 20) to remove unbound protein. The beads were then resuspended in elution buffer (1×PBS, 0.05% Tween 20, 2 μM non-biotinylated affinity ligand) and incubated at room temperature with shaking for 30 min. The kinase concentration in the eluates was measured by quantitative PCR. Each kinase was tested individually against each compound. Kds were determined using eleven serial threefold dilutions. A selectivity score, which is a quantitative measure of selectivity of a compound against a panel of enzymes, may be calculated for a compound by dividing the number of enzymes for which a compound meets a set criteria, (for example, a binding constant of 100 nM or less), by the total number of enzymes tested.

JAK3 = target: T2, JAK3 (Homo sapiens, UniProt P52333); test: Competition binding assay, JAK3
T2 construct: made in house
T2 sequence (P52333 1-1124): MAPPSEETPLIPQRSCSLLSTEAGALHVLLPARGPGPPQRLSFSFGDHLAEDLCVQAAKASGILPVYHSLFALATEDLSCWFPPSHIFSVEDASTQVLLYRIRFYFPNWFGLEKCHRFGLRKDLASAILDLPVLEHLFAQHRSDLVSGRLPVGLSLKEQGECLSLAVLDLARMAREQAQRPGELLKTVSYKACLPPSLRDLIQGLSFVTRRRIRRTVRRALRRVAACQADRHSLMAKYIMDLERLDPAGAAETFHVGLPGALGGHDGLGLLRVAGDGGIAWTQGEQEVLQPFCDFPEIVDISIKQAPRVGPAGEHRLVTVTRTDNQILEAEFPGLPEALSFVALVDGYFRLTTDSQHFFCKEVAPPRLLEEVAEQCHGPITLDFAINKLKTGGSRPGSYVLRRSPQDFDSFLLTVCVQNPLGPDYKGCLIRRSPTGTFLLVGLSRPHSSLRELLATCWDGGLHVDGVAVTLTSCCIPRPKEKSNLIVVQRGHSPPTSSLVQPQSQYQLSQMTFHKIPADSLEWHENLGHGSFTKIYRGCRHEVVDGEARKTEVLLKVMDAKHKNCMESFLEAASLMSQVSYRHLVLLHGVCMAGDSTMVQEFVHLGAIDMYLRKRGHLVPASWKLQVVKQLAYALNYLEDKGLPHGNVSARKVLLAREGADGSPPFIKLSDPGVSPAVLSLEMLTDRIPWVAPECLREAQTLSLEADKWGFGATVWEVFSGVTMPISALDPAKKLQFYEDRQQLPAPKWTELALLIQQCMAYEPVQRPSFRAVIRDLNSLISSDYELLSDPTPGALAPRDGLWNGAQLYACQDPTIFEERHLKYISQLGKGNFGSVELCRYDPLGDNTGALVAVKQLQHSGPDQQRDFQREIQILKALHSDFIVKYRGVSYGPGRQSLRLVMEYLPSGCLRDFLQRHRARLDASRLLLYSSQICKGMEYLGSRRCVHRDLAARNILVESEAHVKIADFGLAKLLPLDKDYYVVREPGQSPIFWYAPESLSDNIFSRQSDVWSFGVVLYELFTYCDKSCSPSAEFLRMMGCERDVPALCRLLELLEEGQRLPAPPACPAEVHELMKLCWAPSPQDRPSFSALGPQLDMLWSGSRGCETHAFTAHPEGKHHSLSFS
Description: as §1, §2

TYK2 = target: T3, TYK2 (Homo sapiens, UniProt P29597); test: Competition binding assay, TYK2
T3 construct: made in house
Description: as §1, §2

[2] = system: panel of distinct kinases excluding mutant variants, typically 359 or 386 kinases; test: Kinase selectivity score S10 from binding panel; conditions: compound at 10 μM; fraction of kinases with inhibition of 90% or greater
Procedure: as §2

T3 sequence (P29597 whole entry): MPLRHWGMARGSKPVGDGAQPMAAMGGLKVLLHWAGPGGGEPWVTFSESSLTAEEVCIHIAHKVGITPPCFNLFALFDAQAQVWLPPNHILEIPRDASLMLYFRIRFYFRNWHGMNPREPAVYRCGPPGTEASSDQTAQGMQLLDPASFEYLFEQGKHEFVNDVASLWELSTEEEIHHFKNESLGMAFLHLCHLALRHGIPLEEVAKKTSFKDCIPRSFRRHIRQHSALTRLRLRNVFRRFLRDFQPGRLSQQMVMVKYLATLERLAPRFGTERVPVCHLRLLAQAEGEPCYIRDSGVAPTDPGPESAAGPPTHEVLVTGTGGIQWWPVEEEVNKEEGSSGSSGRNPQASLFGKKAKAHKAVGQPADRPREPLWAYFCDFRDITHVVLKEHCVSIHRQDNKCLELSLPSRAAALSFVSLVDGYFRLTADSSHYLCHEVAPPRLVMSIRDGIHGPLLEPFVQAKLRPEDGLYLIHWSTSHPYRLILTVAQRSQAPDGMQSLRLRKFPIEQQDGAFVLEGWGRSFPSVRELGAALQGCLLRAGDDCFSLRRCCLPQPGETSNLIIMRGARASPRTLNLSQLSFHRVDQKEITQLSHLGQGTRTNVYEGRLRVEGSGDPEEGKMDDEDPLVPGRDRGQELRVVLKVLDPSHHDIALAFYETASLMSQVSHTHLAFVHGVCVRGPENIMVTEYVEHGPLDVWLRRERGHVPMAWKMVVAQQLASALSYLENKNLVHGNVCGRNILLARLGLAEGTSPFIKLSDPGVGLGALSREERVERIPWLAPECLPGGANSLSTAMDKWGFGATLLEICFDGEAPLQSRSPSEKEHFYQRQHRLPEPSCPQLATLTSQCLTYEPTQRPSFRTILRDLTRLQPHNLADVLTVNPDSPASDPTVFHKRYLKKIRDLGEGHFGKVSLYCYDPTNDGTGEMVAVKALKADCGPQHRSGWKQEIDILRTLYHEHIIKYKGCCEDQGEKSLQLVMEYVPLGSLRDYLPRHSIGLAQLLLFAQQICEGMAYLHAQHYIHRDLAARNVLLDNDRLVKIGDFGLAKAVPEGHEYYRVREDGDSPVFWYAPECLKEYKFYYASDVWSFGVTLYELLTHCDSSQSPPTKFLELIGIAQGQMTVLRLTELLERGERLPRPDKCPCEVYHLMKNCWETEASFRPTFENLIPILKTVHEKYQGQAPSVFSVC
T1 sequence (O60674 whole entry): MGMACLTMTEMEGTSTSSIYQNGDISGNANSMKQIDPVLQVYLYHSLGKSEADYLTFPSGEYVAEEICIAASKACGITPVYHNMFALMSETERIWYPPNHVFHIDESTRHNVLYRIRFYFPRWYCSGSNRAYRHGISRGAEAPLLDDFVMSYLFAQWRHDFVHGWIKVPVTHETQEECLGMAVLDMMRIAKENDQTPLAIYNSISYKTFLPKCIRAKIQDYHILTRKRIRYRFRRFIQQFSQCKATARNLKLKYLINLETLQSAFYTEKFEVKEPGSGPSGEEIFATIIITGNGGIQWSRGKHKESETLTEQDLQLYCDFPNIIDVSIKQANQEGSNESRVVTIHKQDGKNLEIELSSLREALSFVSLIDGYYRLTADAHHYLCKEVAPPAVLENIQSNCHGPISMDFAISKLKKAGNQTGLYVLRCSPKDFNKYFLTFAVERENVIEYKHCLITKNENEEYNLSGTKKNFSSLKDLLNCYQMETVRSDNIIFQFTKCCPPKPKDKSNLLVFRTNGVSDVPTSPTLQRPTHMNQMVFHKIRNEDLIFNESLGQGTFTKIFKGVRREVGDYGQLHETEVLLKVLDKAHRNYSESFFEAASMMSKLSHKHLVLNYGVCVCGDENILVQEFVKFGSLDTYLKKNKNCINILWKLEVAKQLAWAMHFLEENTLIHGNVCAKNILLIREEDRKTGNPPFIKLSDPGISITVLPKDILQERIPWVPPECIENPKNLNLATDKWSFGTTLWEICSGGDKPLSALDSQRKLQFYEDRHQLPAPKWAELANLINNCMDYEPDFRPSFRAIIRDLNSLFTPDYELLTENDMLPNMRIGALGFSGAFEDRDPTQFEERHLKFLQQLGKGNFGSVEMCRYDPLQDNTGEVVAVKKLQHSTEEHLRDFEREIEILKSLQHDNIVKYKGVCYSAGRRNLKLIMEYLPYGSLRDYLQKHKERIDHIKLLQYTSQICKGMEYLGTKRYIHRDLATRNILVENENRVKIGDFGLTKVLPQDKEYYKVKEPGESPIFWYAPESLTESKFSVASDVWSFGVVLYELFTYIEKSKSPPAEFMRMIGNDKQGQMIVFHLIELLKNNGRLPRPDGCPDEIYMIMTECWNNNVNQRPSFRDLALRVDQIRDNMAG

Structure (SMILES) | IC50 [1] | Kd (JAK2) | Kd (JAK3) | Kd (TYK2) | S-Score: S(10) at 10 μM [2]
Cc1cc(Nc2nc([C@]3(c4ccc(F)cc4)C[C@@H](O)C3)nc3ccccc23)n[nH]1 [Example 3, (1R,3R)-3-(4-fluorophenyl)-3-(4-((5-methyl-1H-pyrazol-3-yl)amino)quinazolin-2-yl)cyclobutanol] | 100 to 500 nM | ≤ 1 nM | 10 to 100 nM | 10 to 100 nM | A (A≦0.3)
Cc1cc(Nc2nc(C3(c4ccc(F)cc4)CCOCC3)nc3ccccc23)n[nH]1 [Example 4, 2-(4-(4-fluorophenyl)tetrahydro-2H-pyran-4-yl)-N-(5-methyl-1H-pyrazol-3-yl)quinazolin-4-amine] | 100 to 500 nM | 1 to 10 nM | 10 to 100 nM | ≤ 10 nM | A (A≦0.3)
Cc1cc(Nc2nc([C@]3(c4ccc(F)cc4)C[C@@H](F)C3)nc3ccccc23)n[nH]1 [Example 2, 2-((1R,3R)-3-fluoro-1-(4-fluorophenyl)cyclobutyl)-N-(5-methyl-1H-pyrazol-3-yl)quinazolin-4-amine] | > 500 nM | 1 to 10 nM | 10 to 100 nM | 10 to 100 nM | A (A≦0.3)
Cc1cc(Nc2nc([C@]3(c4ccc(F)cc4)C[C@H](O)C3)nc3ccccc23)n[nH]1 [Example 1, (1S,3S)-3-(4-fluorophenyl)-3-(4-(5-methyl-1H-pyrazol-3-ylamino)quinazolin-2-yl)cyclobutanol] | 100 to 500 nM | ≤ 1 nM | 10 to 100 nM | 10 to 100 nM | A (A≦0.3)
